This passage reports IC50 results from patent US8278345B2, “Inhibitors of glutaminyl cyclase” (Probiodrug AG, priority 2006, dated 2012).

The term IC50 denotes the midpoint of a concentration-inhibition curve.

Like-named read-outs stand apart in the source and are kept apart here.

In the assay the target is hQC (Homo sapiens, UniProt Q16769). Put plainly: Inhibitor assay for glutaminyl cyclase activity (fluorometric, H-Gln-βNA / H-Gln-AMC). The format is biochemical. The essentials: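 Coupled fluorometric assay at 30 °C with pyroglutamyl aminopeptidase, in Tris/HCl pH 8.0 with EDTA, substrate H-Gln-βNA (0.2 mM; ex/em 320/410 nm) or H-Gln-AMC (ex/em 380/460 nm), initiated by QC. Screening: 4 mM inhibitor, substrate at 1 KM; Ki from progress curves fitted to competitive inhibition.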

The mark [1] stands for this setting: compound from preparative synthesis, purified, read-out: IC50 hQC.

Sequence of hQC (Q16769 29-361): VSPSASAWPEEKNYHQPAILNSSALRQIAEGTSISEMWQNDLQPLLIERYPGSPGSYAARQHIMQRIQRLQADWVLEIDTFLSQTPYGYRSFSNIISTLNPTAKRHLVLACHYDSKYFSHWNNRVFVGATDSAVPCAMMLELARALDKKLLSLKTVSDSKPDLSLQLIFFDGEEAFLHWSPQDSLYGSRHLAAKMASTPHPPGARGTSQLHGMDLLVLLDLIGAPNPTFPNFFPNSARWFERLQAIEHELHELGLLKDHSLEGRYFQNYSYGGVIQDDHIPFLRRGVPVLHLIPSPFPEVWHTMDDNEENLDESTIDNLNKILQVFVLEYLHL

On to `CC(=O)C1=C(O)C(=O)N(c2ccc3[nH]cnc3c2)C1c1ccc(C)o1` (stereo not shown) [Compound 415, 4-Acetyl-1-(1H-benzoimidazol-5-yl)-3-hydroxy-5-(5-methyl-furan-2-yl)-1,5-dihydro-pyrrol-2-one], for which, under “read-out: IC50”, the IC50 worked out at 1390 nM.

For `CCC1=C(O)C(=O)N(CCCn2ccnc2)C1c1ccc(C)o1` (stereo not shown) [Compound 227, 4-Ethyl-3-hydroxy-1-(3-imidazol-1-yl-propyl)-5-(5-methyl-furan-2-yl)-1,5-dihydro-pyrrol-2-one], the IC50 (read-out: IC50) stood at 2200 nM.

For the molecule `O=C1C(O)=C(c2ccc(O)cc2)C(c2ncc[nH]2)N1CCCn1ccnc1` (stereo not shown) [Compound 168, 3-Hydroxy-4-(4-hydroxy-phenyl)-5-(1H-imidazol-2-yl)-1-(3-imidazol-1-yl-propyl)-1,5-dihydro-pyrrol-2-one], the IC50 (read-out: IC50) turned out to be 2200 nM.

As for `CC(C)(C)C(=O)C1=C(O)C(=O)N(c2ccc3[nH]cnc3c2)C1c1cc2ccccc2nc1Cl` (stereo not shown) [Compound 392, 1-(1H-Benzoimidazol-5-yl)-5-(2-chloro-quinolin-3-yl)-4-(2,2-dimethyl-propionyl)-3-hydroxy-1,5-dihydro-pyrrol-2-one], the IC50 (read-out: IC50) is 4450 nM.

Turning to `CC(C)C1=C(O)C(=O)N(CCCn2ccnc2)C1c1ccc(CO)o1` (stereo not shown) [Compound 63, 3-Hydroxy-5-(5-hydroxymethyl-furan-2-yl)-1-(3-imidazol-1-yl-propyl)-4-isopropyl-1,5-dihydro-pyrrol-2-one], under “read-out: IC50”, the IC50 came out at 3100 nM.

As to `Cc1cccc(C2C(C(=O)CC(C)C)=C(O)C(=O)N2c2ccc3[nH]cnc3c2)c1` (stereo not shown) [Compound 458, 1-(1H-Benzoimidazol-5-yl)-3-hydroxy-4-(3-methyl-butyryl)-5-m-tolyl-1,5-dihydro-pyrrol-2-one], the concentration for half-maximal inhibition (IC50) (read-out: IC50) was 580 nM.

As to `Cc1ccc(C2C(C(C)C)=C(O)C(=O)N2CCCn2ccnc2)cc1` (stereo not shown) [Compound 54, 3-Hydroxy-1-(3-imidazol-1-yl-propyl)-4-isopropyl-5-p-tolyl-1,5-dihydro-pyrrol-2-one], the IC50 (read-out: IC50) worked out at 400 nM.

With `O=C(C1=C(O)C(=O)N(c2ccc3[nH]cnc3c2)C1c1cc[nH]n1)C1CCCCC1` (stereo not shown) [Compound 379, 1-(1H-Benzoimidazol-5-yl)-4-cyclohexanecarbonyl-3-hydroxy-5-(1H-pyrazol-3-yl)-1,5-dihydro-pyrrol-2-one], the concentration for half-maximal inhibition (IC50) (read-out: IC50) was found to be 5260 nM.

As for `CCCCCC(=O)C1=C(O)C(=O)N(c2ccc3[nH]cnc3c2)C1CC` (stereo not shown) [Compound 463, 1-(1H-Benzoimidazol-5-yl)-5-ethyl-4-hexanoyl-3-hydroxy-1,5-dihydro-pyrrol-2-one], where the note is “read-out: IC50”, the half-inhibitory concentration (IC50) was 4000 nM.

As for `Cc1cccc(C2C(c3c[nH]c4ccccc34)=C(O)C(=O)N2c2ccc3[nH]cnc3c2)n1` (stereo not shown) [Compound 385, 1-(1H-Benzoimidazol-5-yl)-3-hydroxy-4-(1H-indol-3-yl)-5-(6-methyl-pyridin-2-yl)-1,5-dihydro-pyrrol-2-one], the IC50 (read-out: IC50) was found to be 760 nM.

On to `Cc1ccc(C2C(c3ccccc3)=C(O)C(=O)N2CCCn2ccnc2)cc1` (stereo not shown) [Compound 77, 3-Hydroxy-1-(3-imidazol-1-yl-propyl)-4-phenyl-5-p-tolyl-1,5-dihydro-pyrrol-2-one], for which the 50% inhibitory concentration (IC50) under setting [1] came out at 1910 nM and the IC50 (read-out: IC50) was 40 nM.

For `CC(=O)C1=C(O)C(=O)N(c2ccc3[nH]cnc3c2)C1c1cccc(Cl)c1` (stereo not shown) [Compound 301, 4-Acetyl-1-(1H-benzoimidazol-5-yl)-5-(3-chloro-phenyl)-3-hydroxy-1,5-dihydro-pyrrol-2-one], where the note is “read-out: IC50”, the IC50 amounted to 130 nM.

`CCCCCC1=C(O)C(=O)N(CCCn2ccnc2)C1CO` (stereo not shown) [Compound 211, 3-Hydroxy-5-hydroxymethyl-1-(3-imidazol-1-yl-propyl)-4-pentyl-1,5-dihydro-pyrrol-2-one]: the IC50 (read-out: IC50) is 400 nM.

Turning to `O=C1C(O)=C(c2ccccc2)C(c2ccc(Cl)c(Cl)c2)N1c1ccc2[nH]cnc2c1` (stereo not shown) [Compound 264, 1-(1H-Benzoimidazol-5-yl)-5-(3,4-dichloro-phenyl)-3-hydroxy-4-phenyl-1,5-dihydro-pyrrol-2-one], the IC50 (read-out: IC50) came out at 1570 nM.

Consider `CCCCC1C(c2ccccc2)=C(O)C(=O)N1CCCn1ccnc1` (stereo not shown) [Compound 107, 5-Butyl-3-hydroxy-1-(3-imidazol-1-yl-propyl)-4-phenyl-1,5-dihydro-pyrrol-2-one], for which the half-inhibitory concentration (IC50) runs as follows: under setting [1], 524 nM; (read-out: IC50) 40 nM.

As to `CCC1=C(O)C(=O)N(c2ccc3[nH]cnc3c2)C1c1ccnc2ccccc12` (stereo not shown) [Compound 302, 1-(1H-Benzoimidazol-5-yl)-4-ethyl-3-hydroxy-5-quinolin-4-yl-1,5-dihydro-pyrrol-2-one], the IC50 (read-out: IC50) turned out to be 2920 nM.

Consider `CC1=C(O)C(=O)N(CCCn2ccnc2)C1c1ccc(C)cc1` (stereo not shown) [Compound 21, 3-Hydroxy-1-(3-imidazol-1-yl-propyl)-4-methyl-5-p-tolyl-1,5-dihydro-pyrrol-2-one], for which the IC50 (read-out: IC50) worked out at 2200 nM.

In the case of `CCCCCC1=C(O)C(=O)N(CCCn2ccnc2)C1c1c[nH]c2ccccc12` (stereo not shown) [Compound 204, 3-Hydroxy-1-(3-imidazol-1-yl-propyl)-5-(1H-indol-3-yl)-4-pentyl-1,5-dihydro-pyrrol-2-one], the concentration for half-maximal inhibition (IC50) (read-out: IC50) stood at 40 nM.

On to `O=C1C(O)=C(c2ccc(O)cc2)C(c2cccc(Cl)c2)N1CCCn1ccnc1` (stereo not shown) [Compound 179, 5-(3-Chloro-phenyl)-3-hydroxy-4-(4-hydroxy-phenyl)-1-(3-imidazol-1-yl-propyl)-1,5-dihydro-pyrrol-2-one], for which the IC50 (read-out: IC50) was 40 nM.

With `O=C1C(O)=C(c2ccccc2)C(c2ccccc2O)N1CCCn1ccnc1` (stereo not shown) [Compound 87, 3-Hydroxy-5-(2-hydroxy-phenyl)-1-(3-imidazol-1-yl-propyl)-4-phenyl-1,5-dihydro-pyrrol-2-one], where the note is “read-out: IC50”, the IC50 amounted to 3100 nM.

As to `CCCC(=O)C1=C(O)C(=O)N(c2ccc3[nH]cnc3c2)C1CCC` (stereo not shown) [Compound 313, 1-(1H-Benzoimidazol-5-yl)-4-butyryl-3-hydroxy-5-propyl-1,5-dihydro-pyrrol-2-one], the half-maximal inhibitory concentration (IC50) (read-out: IC50) is 5170 nM.

Turning to `O=C(C1=C(O)C(=O)N(c2ccc3[nH]cnc3c2)C1c1ccc(CO)o1)C1CC1` (stereo not shown) [Compound 418, 1-(1H-Benzoimidazol-5-yl)-4-cyclopropanecarbonyl-3-hydroxy-5-(5-hydroxymethyl-furan-2-yl)-1,5-dihydro-pyrrol-2-one], the half-inhibitory concentration (IC50) (read-out: IC50) amounted to 310 nM.

As to `CCC1=C(O)C(=O)N(c2ccc3[nH]cnc3c2)C1c1ccc(N2CCCC2)cc1` (stereo not shown) [Compound 406, 1-(1H-Benzoimidazol-5-yl)-4-ethyl-3-hydroxy-5-(4-pyrrolidin-1-yl-phenyl)-1,5-dihydro-pyrrol-2-one], the IC50 (read-out: IC50) was determined as 8320 nM.

As to `CCC1C(c2ccc(O)cc2)=C(O)C(=O)N1CCCn1ccnc1` (stereo not shown) [Compound 178, 5-Ethyl-3-hydroxy-4-(4-hydroxy-phenyl)-1-(3-imidazol-1-yl-propyl)-1,5-dihydro-pyrrol-2-one], where the note is “read-out: IC50”, the half-maximal inhibitory concentration (IC50) was determined as 400 nM.

Regarding `O=C1C(O)=C(c2c[nH]c3ccccc23)C(c2ccc(CO)o2)N1CCCn1ccnc1` (stereo not shown) [Compound 126, 3-Hydroxy-5-(5-hydroxymethyl-furan-2-yl)-1-(3-imidazol-1-yl-propyl)-4-(1H-indol-3-yl)-1,5-dihydro-pyrrol-2-one], the concentration for half-maximal inhibition (IC50) (read-out: IC50) turned out to be 400 nM.

Regarding `CC1=C(O)C(=O)N(CCCn2ccnc2)C1c1c[nH]c2cc(C)ccc12` (stereo not shown) [Compound 37, 3-Hydroxy-1-(3-imidazol-1-yl-propyl)-4-methyl-5-(6-methyl-1H-indol-3-yl)-1,5-dihydro-pyrrol-2-one], the IC50 (read-out: IC50) was determined as 400 nM.

Consider `O=C(O)c1ccc(C2C(C(=O)C3CCCCC3)=C(O)C(=O)N2c2ccc3[nH]cnc3c2)o1` (stereo not shown) [Compound 374, 5-[1-(1H-Benzoimidazol-5-yl)-3-cyclohexanecarbonyl-4-hydroxy-5-oxo-2,5-dihydro-1H-pyrrol-2-yl]-furan-2-carboxylic acid], for which the concentration for half-maximal inhibition (IC50) (read-out: IC50) stood at 760 nM.

For the molecule `O=C1C(O)=C(c2ccccc2)C(C(O)CO)N1CCCn1ccnc1` (stereo not shown) [Compound 82, 5-(1,2-Dihydroxy-ethyl)-3-hydroxy-1-(3-imidazol-1-yl-propyl)-4-phenyl-1,5-dihydro-pyrrol-2-one], the IC50 (read-out: IC50) is 3100 nM.

With `Cn1cc(C2C(CC(=O)O)=C(O)C(=O)N2c2ccc3[nH]cnc3c2)c2ccccc21` (stereo not shown) [Compound 322, [1-(1H-Benzoimidazol-5-yl)-4-hydroxy-2-(1-methyl-1H-indol-3-yl)-5-oxo-2,5-dihydro-1H-pyrrol-3-yl]-acetic acid], the IC50 (read-out: IC50) was determined as 5800 nM.

`CC1=C(O)C(=O)N(c2ccc3[nH]cnc3c2)C1c1ccccc1F` (stereo not shown) [Compound 386, 1-(1H-Benzoimidazol-5-yl)-5-(2-fluoro-phenyl)-3-hydroxy-4-methyl-1,5-dihydro-pyrrol-2-one]: where the note is “read-out: IC50”, the IC50 was 1930 nM.

For the molecule `Cc1ccc(C2C(c3cccc(O)c3)=C(O)C(=O)N2CCCn2ccnc2)o1` (stereo not shown) [Compound 11, 3-Hydroxy-4-(3-hydroxy-phenyl)-1-(3-imidazol-1-yl-propyl)-5-(5-methyl-furan-2-yl)-1,5-dihydro-pyrrol-2-one], the IC50 (read-out: IC50) came to 2200 nM.

As to `CC(=O)C1=C(O)C(=O)N(c2ccc3[nH]cnc3c2)C1c1cc(Br)c(O)c(Br)c1` (stereo not shown) [Compound 414, 4-Acetyl-1-(1H-benzoimidazol-5-yl)-5-(3,5-dibromo-4-hydroxy-phenyl)-3-hydroxy-1,5-dihydro-pyrrol-2-one], the IC50 (read-out: IC50) is 2380 nM.

Turning to `Cc1ccc(C2C(C(=O)c3ccc(Cl)cc3)=C(O)C(=O)N2c2ccc3[nH]cnc3c2)o1` (stereo not shown) [Compound 459, 1-(1H-Benzoimidazol-5-yl)-4-(4-chloro-benzoyl)-3-hydroxy-5-(5-methyl-furan-2-yl)-1,5-dihydro-pyrrol-2-one], the concentration for half-maximal inhibition (IC50) (read-out: IC50) amounted to 2110 nM.

For the molecule `CC(=O)C1=C(O)C(=O)N(c2ccc3[nH]cnc3c2)C1C1CC=CCC1` (stereo not shown) [Compound 375, 4-Acetyl-1-(1H-benzoimidazol-5-yl)-5-cyclohex-3-enyl-3-hydroxy-1,5-dihydro-pyrrol-2-one], where the note is “read-out: IC50”, the half-maximal inhibitory concentration (IC50) is 9580 nM.

In the case of `O=C(C1=C(O)C(=O)N(c2ccc3[nH]cnc3c2)C1c1ccc(CO)o1)c1ccsc1` (stereo not shown) [Compound 263, 1-(1H-Benzoimidazol-5-yl)-3-hydroxy-5-(5-hydroxymethyl-furan-2-yl)-4-(thiophene-3-carbonyl)-1,5-dihydro-pyrrol-2-one], where the note is “read-out: IC50”, the concentration for half-maximal inhibition (IC50) worked out at 2020 nM.
